BindingDB's records for patent US20230312550 (Astrazeneca, 2023)

Molecular target: T1, Prolyl endopeptidase FAP (Homo sapiens, UniProt Q12884)
T1 sequence (Q12884 whole entry): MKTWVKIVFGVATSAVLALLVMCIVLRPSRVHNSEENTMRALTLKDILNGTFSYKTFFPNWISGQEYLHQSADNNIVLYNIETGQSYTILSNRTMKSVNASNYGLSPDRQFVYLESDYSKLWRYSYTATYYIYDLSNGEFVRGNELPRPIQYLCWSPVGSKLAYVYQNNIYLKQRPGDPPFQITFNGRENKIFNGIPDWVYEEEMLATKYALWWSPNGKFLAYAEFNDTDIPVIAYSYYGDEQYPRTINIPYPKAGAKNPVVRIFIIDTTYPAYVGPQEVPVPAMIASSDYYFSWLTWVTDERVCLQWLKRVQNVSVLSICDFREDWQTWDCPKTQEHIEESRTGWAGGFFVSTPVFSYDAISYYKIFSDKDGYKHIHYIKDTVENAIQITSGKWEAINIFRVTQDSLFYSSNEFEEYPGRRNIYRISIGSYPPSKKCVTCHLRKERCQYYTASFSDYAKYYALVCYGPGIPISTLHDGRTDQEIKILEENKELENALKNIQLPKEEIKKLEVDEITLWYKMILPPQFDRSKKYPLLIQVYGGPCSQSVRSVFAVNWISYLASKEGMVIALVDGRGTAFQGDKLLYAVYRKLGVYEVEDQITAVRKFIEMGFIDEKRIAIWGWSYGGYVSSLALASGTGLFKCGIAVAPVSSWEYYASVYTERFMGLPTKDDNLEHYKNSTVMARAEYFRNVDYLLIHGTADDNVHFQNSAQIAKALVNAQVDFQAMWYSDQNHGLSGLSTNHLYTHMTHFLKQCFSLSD
Experiment: hFAP Binding Assay
Settings: for kon: read-out: kon (M-1-s-1)
Description: Table 1: Compounds were tested in a direct binding assay using 8K surface plasmon resonance biosensor (GE Healthcare) at 20° C. Immobilization of hFAP (M39-A757) on a CMD200M sensor chip (Xantec) was performed using standard amine coupling procedure in immobilization buffer (10 mM HEPES, 150 mM NaCl, 0.05% Tween20, pH 7.4). The surface was washed with 10 mM NaOH, 1M NaCl before being activated with EDC/NHS (GE Healthcare), followed by immobilization of hFAP (in 10 mM Acetate pH 5.0). Finally, the surface was deactivated by ethanolamine. Immobilization levels of hFAP were around 4000-6000 RU. The reference spot was treated as described, omitting the injection of hFAP. Compound concentration series were injected over the immobilized protein in increasing concentrations (2-500 nM) using single cycle kinetics in running buffer (20 mM TRIS, 150 mM NaCl, 0.05% Tween20, 1% DMSO, pH 7.4).

Row | Compound | koff [s⁻¹] | kon [M⁻¹ s⁻¹] | koff (s-1) [s⁻¹]
1 | N#C[C@@H]1CSCN1C(=O)CNC(=O)c1ccnc2ccc(N3CCCC[C@@H](F)C3)cc12 [US20230312550, Example 59] | 0.00019 | 2.6e+06 | –
2 | N#C[C@@H]1CSCN1C(=O)CNC(=O)c1ccnc2ccc(N3CCCC[C@H](F)C3)cc12 [US20230312550, Example 60] | 0.00017 | 1.7e+06 | –
3 | C[C@H]1CCN(c2ccc3nccc(C(=O)NCC(=O)N4CSC[C@H]4C#N)c3c2)CCO1 [US20230312550, Example 62] | 8.5e-05 | 710000 | –
4 | C[C@H]1COCCCN1c1ccc2nccc(C(=O)NCC(=O)N3CSC[C@H]3C#N)c2c1 [US20230312550, Example 63] | 5.9e-05 | 4.1e+06 | –
5 | C[C@@H]1CN(c2ccc3nccc(C(=O)NCC(=O)N4CSC[C@H]4C#N)c3c2)CCCO1 [US20230312550, Example 64] | 0.00015 | 1.3e+06 | –
6 | C[C@H]1CCCN1c1ccc2nccc(C(=O)NCC(=O)N3CSC[C@H]3C#N)c2c1 [US20230312550, Example 65] | 0.00047 | 6.7e+06 | –
7 | COC1CN(c2ccc3nccc(C(=O)NCC(=O)N4CSC[C@H]4C#N)c3c2)C1 [US20230312550, Example 66] | 0.00022 | 2.6e+07 | –
8 | N#C[C@@H]1CSCN1C(=O)CNC(=O)c1ccnc2ccc(N3CCO[C@@H](C(F)(F)F)C3)cc12 [US20230312550, Example 73] | 0.00016 | 2.4e+06 | –
9 | N#C[C@@H]1CSCN1C(=O)CNC(=O)c1ccnc2ccc(N3CCO[C@H](C(F)(F)F)C3)cc12 [US20230312550, Example 74] | 0.00016 | 1.1e+06 | –
10 | N#C[C@@H]1CSCN1C(=O)CNC(=O)c1ccnc2ccc(N3C[C@@H]4C[C@H]3CO4)cc12 [US20230312550, Example 75] | 2.4e-05 | 2.3e+06 | –
11 | N#C[C@@H]1CSCN1C(=O)CNC(=O)c1ccnc2ccc(N3C[C@H]4C[C@@H]3CO4)cc12 [US20230312550, Example 76] | 5.2e-05 | 1e+06 | –
12 | N#C[C@@H]1CSCN1C(=O)CNC(=O)c1ccnc2ccc(N3CC4CC(C3)O4)cc12 [US20230312550, Example 77] | 6.6e-05 | 4.8e+06 | –
13 | N#C[C@@H]1CSCN1C(=O)CNC(=O)c1ccnc2ccc(N3CC4CCC(C3)O4)cc12 [US20230312550, Example 79] | 0.00012 | 1.6e+07 | –
14 | N#C[C@@H]1CSCN1C(=O)CNC(=O)c1ccnc2ccc(N3CCOC[C@@H]3C(F)(F)F)cc12 [US20230312550, Example 85] | 0.00011 | – | 0.00011
15 | N#C[C@@H]1CSCN1C(=O)CNC(=O)c1ccnc2ccc(N3C4CCCC3COC4)cc12 [US20230312550, Example 86] | 5.8e-05 | 730000 | –
16 | CC1(C)CN(c2ccc3nccc(C(=O)NCC(=O)N4CSC[C@H]4C#N)c3c2)CCO1 [US20230312550, Example 88] | 0.00034 | 4.2e+06 | –
17 | C[C@@H]1COC[C@H](C)N1c1ccc2nccc(C(=O)NCC(=O)N3CSC[C@H]3C#N)c2c1 [US20230312550, Example 90] | 0.0001 | 480000 | –
18 | CS(=O)(=O)C[C@H]1CN(c2ccc3nccc(C(=O)NCC(=O)N4CSC[C@H]4C#N)c3c2)CCO1 [US20230312550, Example 92] | 0.00011 | 2.2e+06 | –
19 | COC[C@@H]1CN(c2ccc3nccc(C(=O)NCC(=O)N4CSC[C@H]4C#N)c3c2)CCO1 [US20230312550, Example 93] | 8e-05 | 1.8e+06 | –
20 | CS(=O)(=O)C[C@@H]1CN(c2ccc3nccc(C(=O)NCC(=O)N4CSC[C@H]4C#N)c3c2)CCO1 [US20230312550, Example 94] | 9.9e-05 | 1.9e+06 | –
21 | COCC[C@@H]1COCCN1c1ccc2nccc(C(=O)NCC(=O)N3CSC[C@H]3C#N)c2c1 [US20230312550, Example 95] | 5.6e-05 | 2.9e+06 | –
22 | COC[C@H]1[C@H](C)OCCN1c1ccc2nccc(C(=O)NCC(=O)N3CSC[C@H]3C#N)c2c1 [US20230312550, Example 96] | 0.00022 | 4e+06 | –
23 | COC[C@@H]1[C@@H](C)OCCN1c1ccc2nccc(C(=O)NCC(=O)N3CSC[C@H]3C#N)c2c1 [US20230312550, Example 97] | 7.6e-05 | 690000 | –
24 | N#C[C@@H]1CSCN1C(=O)CNC(=O)c1ccnc2ccc(N3C4CCC3COC4)cc12 [US20230312550, Example 98] | 1.5e-05 | 1.6e+06 | –
25 | N#C[C@@H]1CSCN1C(=O)CNC(=O)c1ccnc2ccc(N3CCOC4(CCOCC4)C3)cc12 [US20230312550, Example 99] | 0.0002 | 2.1e+06 | –

Row | Compound | koff [s⁻¹] | kon [M⁻¹ s⁻¹] | koff (s-1) [s⁻¹]
26 | C[C@@H]1COC[C@H](C)N1c1cc2c(C(=O)NCC(=O)N3CSC[C@H]3C#N)ccnc2cc1Br [US20230312550, Example 100] | 0.0022 | 3e+06 | –
27 | N#C[C@@H]1CSCN1C(=O)CNC(=O)c1ccnc2ccc(N3CCOCC3)c(Cl)c12 [US20230312550, Example 101] | 2.5e-05 | 740000 | –
28 | C[C@H]1COC[C@H](C)N1c1ccc2nccc(C(=O)NCC(=O)N3CSC[C@H]3C#N)c2c1 [US20230312550, Example 103] | 0.0001 | 3e+06 | –
29 | N#C[C@@H]1CSCN1C(=O)CNC(=O)c1ccnc2ccc(N3CCOCC34CCC4)cc12 [US20230312550, Example 104] | 6.1e-05 | 3e+06 | –
30 | C[C@@H]1COC[C@@H](C)N1c1ccc2nccc(C(=O)NCC(=O)N3CSC[C@H]3C#N)c2c1 [US20230312550, Example 105] | 6.8e-05 | 890000 | –
31 | CC[C@H]1COCCN1c1ccc2nccc(C(=O)NCC(=O)N3CSC[C@H]3C#N)c2c1 [US20230312550, Example 106] | 0.00014 | 1.8e+06 | –
32 | N#C[C@@H]1CSCN1C(=O)CNC(=O)c1ccnc2ccc(N3CC(CF)C3)cc12 [US20230312550, Example 113] | 4.5e-05 | 1.5e+06 | –
33 | Cc1cc(C(F)(F)F)nn1-c1ccc2nccc(C(=O)NCC(=O)N3CSC[C@H]3C#N)c2c1 [US20230312550, Example 116] | 0.0012 | 7.9e+06 | –
34 | N#C[C@@H]1CSCN1C(=O)CNC(=O)c1ccnc2ccc(-n3ccc4c(F)cc(F)cc43)cc12 [US20230312550, Example 119] | 0.00031 | 610000 | –
35 | Cc1ccn(-c2ccc3nccc(C(=O)NCC(=O)N4CSC[C@H]4C#N)c3c2)c1 [US20230312550, Example 121] | 1.6e-05 | 1.1e+06 | –
36 | N#C[C@@H]1CSCN1C(=O)CNC(=O)c1ccnc2ccc(N3CC(N4CCOCC4)C3)cc12 [US20230312550, Example 122] | 4.3e-05 | 1.3e+06 | –
37 | CC1(C)Cc2c(-c3ccc4nccc(C(=O)NCC(=O)N5CSC[C@H]5C#N)c4c3)cnn2C1 [US20230312550, Example 123] | 0.00042 | 3e+06 | –
38 | N#C[C@@H]1CSCN1C(=O)CNC(=O)c1ccnc2ccc(-c3ccnc(F)c3)cc12 [US20230312550, Example 124] | 0.00028 | 3e+06 | –
39 | N#C[C@@H]1CSCN1C(=O)CNC(=O)c1ccnc2ccc(-c3ccc(F)cn3)cc12 [US20230312550, Example 125] | 0.00014 | 3e+06 | –
40 | N#C[C@@H]1CSCN1C(=O)CNC(=O)c1ccnc2ccc(-c3cccnc3)cc12 [US20230312550, Example 126] | 0.00021 | 1.8e+06 | –
41 | N#C[C@@H]1CSCN1C(=O)CNC(=O)c1ccnc2ccc(-c3cncnc3)cc12 [US20230312550, Example 127] | 0.002 | 6e+06 | –
42 | Cc1ncccc1-c1ccc2nccc(C(=O)NCC(=O)N3CSC[C@H]3C#N)c2c1 [US20230312550, Example 128] | 0.00066 | 5.4e+06 | –
43 | CC1(CC(F)(F)F)CN(c2ccc3nccc(C(=O)NCC(=O)N4CSC[C@H]4C#N)c3c2)C1 [US20230312550, Example 131] | 0.00014 | 1.8e+06 | –
44 | N#C[C@@H]1CSCN1C(=O)CNC(=O)c1ccnc2ccc(N3CC(OC(F)(F)F)C3)cc12 [US20230312550, Example 132] | 0.00014 | 270000 | –
45 | CC1(CC(F)F)CN(c2ccc3nccc(C(=O)NCC(=O)N4CSC[C@H]4C#N)c3c2)C1 [US20230312550, Example 133] | 7.3e-05 | 1.2e+06 | –
46 | CC1(C2CC2)CN(c2ccc3nccc(C(=O)NCC(=O)N4CSC[C@H]4C#N)c3c2)C1 [US20230312550, Example 134] | 8e-05 | 620000 | –
47 | CC1(C(F)F)CN(c2ccc3nccc(C(=O)NCC(=O)N4CSC[C@H]4C#N)c3c2)C1 [US20230312550, Example 135] | 2.3e-05 | 1.7e+06 | –
48 | N#C[C@@H]1CSCN1C(=O)CNC(=O)c1ccnc2ccc(N3CC(OC(F)F)C3)cc12 [US20230312550, Example 136] | 5e-05 | 2e+06 | –
49 | CCC1(C)CN(c2ccc3nccc(C(=O)NCC(=O)N4CSC[C@H]4C#N)c3c2)C1 [US20230312550, Example 137] | 9.8e-05 | 9.5e+06 | –
50 | CC(F)(F)CC1CN(c2ccc3nccc(C(=O)NCC(=O)N4CSC[C@H]4C#N)c3c2)C1 [US20230312550, Example 140] | 0.00016 | 2.6e+06 | –
